The term EC50 denotes the concentration giving half of the maximal effect. What is called IC50 is the midpoint of a concentration-inhibition curve.

From ChEMBL document CHEMBL1155531, “Structure guided design of 5-arylindazole glucocorticoid receptor agonists and antagonists” (J Med Chem, 2010) come the findings set out here.

In assay [1] the target is T1, Glucocorticoid receptor (Homo sapiens, UniProt P04150).
T1 sequence (P04150 whole entry): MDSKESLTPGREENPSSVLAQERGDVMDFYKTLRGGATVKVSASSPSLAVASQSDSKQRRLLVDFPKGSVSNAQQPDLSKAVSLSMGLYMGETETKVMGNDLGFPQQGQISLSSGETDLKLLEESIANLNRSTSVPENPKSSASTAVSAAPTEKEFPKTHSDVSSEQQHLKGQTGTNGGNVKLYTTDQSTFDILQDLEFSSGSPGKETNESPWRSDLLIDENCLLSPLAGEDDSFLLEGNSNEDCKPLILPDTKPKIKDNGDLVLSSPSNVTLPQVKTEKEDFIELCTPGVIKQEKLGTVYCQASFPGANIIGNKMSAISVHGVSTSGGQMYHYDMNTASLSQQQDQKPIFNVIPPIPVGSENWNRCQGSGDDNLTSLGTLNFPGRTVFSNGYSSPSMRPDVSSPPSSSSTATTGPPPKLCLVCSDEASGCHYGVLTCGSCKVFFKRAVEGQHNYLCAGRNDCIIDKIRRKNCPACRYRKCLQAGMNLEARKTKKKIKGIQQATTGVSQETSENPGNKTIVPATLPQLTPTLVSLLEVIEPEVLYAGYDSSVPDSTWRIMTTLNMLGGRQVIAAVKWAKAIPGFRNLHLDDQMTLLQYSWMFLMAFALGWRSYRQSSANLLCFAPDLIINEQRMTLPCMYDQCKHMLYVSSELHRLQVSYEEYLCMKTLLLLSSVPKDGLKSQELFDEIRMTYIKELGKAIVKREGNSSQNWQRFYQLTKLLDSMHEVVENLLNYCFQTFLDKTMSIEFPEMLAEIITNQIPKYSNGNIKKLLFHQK
As to the kind of experiment: Agonist activity at GR in human A549 cells transfected with luciferase gene linked to MMTV promoter assessed as luciferase transactivation activity after 24 hrs. The format is functional, cell-based.

The target in another assay is T2, Progesterone receptor (Homo sapiens, UniProt P06401).
T2 sequence (P06401 whole entry): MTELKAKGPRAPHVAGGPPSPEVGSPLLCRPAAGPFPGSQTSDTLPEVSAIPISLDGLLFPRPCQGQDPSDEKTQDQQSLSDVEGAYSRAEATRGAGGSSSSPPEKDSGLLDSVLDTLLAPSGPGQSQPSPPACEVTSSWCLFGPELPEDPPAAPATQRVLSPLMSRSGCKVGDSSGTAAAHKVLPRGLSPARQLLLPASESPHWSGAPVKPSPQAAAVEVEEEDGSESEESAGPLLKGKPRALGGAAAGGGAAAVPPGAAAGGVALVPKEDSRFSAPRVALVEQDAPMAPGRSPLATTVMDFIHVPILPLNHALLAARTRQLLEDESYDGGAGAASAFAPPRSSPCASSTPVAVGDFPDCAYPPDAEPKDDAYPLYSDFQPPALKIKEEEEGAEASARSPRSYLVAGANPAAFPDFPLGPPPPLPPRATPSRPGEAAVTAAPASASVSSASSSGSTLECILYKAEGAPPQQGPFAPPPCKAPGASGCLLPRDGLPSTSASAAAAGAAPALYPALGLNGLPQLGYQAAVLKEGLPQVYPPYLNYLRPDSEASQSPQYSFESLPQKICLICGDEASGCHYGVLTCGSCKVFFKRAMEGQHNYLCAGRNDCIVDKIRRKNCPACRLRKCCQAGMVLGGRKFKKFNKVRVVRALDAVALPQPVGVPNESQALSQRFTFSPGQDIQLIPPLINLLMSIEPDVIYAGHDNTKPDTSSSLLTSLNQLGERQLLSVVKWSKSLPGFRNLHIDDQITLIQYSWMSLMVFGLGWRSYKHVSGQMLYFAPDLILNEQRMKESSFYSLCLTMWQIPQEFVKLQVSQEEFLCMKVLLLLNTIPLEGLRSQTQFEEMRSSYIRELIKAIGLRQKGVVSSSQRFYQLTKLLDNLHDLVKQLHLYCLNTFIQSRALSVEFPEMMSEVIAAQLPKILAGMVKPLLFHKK
The assay is described as follows: Binding affinity to PR.

Assay [2] deals with T1, Glucocorticoid receptor. As to the kind of experiment: Displacement of fluorescent-labeled Dexamethasone from GR by fluorescent polarization assay.
The target of assay [3] is T1, Glucocorticoid receptor. The assay is described as follows: Activity at GR in human A549 cells by NF-kappaB transrepression assay. The format is cell-based.
The next assay concerns the target T3, Androgen receptor (Homo sapiens, UniProt P10275).
T3 sequence (P10275 whole entry): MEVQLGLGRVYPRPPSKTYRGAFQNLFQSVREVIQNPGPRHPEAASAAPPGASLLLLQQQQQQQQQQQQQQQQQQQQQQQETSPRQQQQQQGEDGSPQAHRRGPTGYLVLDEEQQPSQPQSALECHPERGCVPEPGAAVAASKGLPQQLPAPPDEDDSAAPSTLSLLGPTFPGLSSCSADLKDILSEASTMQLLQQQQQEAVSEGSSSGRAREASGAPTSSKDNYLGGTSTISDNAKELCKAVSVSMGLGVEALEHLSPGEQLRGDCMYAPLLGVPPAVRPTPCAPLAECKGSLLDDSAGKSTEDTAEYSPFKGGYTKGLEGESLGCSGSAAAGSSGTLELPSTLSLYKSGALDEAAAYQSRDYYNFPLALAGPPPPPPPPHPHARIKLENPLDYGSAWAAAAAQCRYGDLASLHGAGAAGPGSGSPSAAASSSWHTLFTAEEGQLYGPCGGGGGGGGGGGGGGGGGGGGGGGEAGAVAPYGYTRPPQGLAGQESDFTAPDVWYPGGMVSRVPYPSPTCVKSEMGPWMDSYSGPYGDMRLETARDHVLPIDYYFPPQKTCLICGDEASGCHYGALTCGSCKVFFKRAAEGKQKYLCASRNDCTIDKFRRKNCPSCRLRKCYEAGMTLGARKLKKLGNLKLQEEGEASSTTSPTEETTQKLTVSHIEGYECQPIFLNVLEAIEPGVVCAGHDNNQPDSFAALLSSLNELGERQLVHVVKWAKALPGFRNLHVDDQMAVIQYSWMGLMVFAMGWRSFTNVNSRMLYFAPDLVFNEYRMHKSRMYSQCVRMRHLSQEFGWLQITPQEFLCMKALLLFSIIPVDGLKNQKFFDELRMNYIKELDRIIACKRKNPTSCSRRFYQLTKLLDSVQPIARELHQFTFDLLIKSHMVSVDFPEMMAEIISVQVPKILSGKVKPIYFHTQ

In assay [4] the target is T1, Glucocorticoid receptor. As to the kind of experiment: Antagonist activity at GR in human A549 cells transfected with luciferase gene linked to MMTV promoter assessed as inhibition of dexamethasone-induced luciferase transactivation activity after 24 hrs. The format is functional, cell-based.

On to `CN(c1ccccc1)S(=O)(=O)c1ccc(-c2ccc3c(cnn3-c3ccc(F)cc3)c2)c(C(F)(F)F)c1`, for which, on Glucocorticoid receptor [1], the EC50 is 631 nM. The IC50 at Progesterone receptor is 794 nM; on Glucocorticoid receptor [2] it was 12.6 nM; on Glucocorticoid receptor [3] it was 398 nM; on Androgen receptor it was above 10000 nM.
The like results for `CC(C)S(=O)(=O)Nc1ccc(-c2ccc3c(cnn3-c3ccc(F)cc3)c2)c(C(F)(F)F)c1` were, in that order, 158 nM, above 10000 nM, 12.6 nM, 50.1 nM and above 10000 nM.
Consider `CCCN(c1ccccc1)S(=O)(=O)c1ccc(-c2ccc3c(cnn3-c3ccc(F)cc3)c2)c(C(F)(F)F)c1`, for which, on Glucocorticoid receptor [1], the EC50 is 316 nM. Besides, the IC50 on Progesterone receptor was above 10000 nM; at Glucocorticoid receptor [2], 15.8 nM; on Glucocorticoid receptor [3] it was 316 nM; on Androgen receptor, above 10000 nM.
Turning to `CCN(c1ccccc1)S(=O)(=O)c1ccc(-c2ccc3c(cnn3-c3ccc(F)cc3)c2)c(C(F)(F)F)c1`, the EC50 on Glucocorticoid receptor [1] is 200 nM. Moreover, the IC50 at Progesterone receptor was above 10000 nM; on Glucocorticoid receptor [2] it was 15.8 nM; at Glucocorticoid receptor [3], 126 nM; on Androgen receptor, above 10000 nM.
As for `O=S(=O)(Nc1ccc(-c2ccc3c(cnn3-c3ccc(F)cc3)c2)c(C(F)(F)F)c1)c1ccsc1`, on Glucocorticoid receptor [1], the EC50 was 251 nM. For the same molecule, the IC50 on Progesterone receptor is above 10000 nM; on Glucocorticoid receptor [2], 12.6 nM; on Glucocorticoid receptor [3], 100 nM; at Androgen receptor, 2510 nM.
The like results for `O=S(=O)(Nc1ccc(-c2ccc3c(cnn3-c3ccc(F)cc3)c2)c(C(F)(F)F)c1)c1cccc(C(F)(F)F)c1` were, in that order, 200 nM, above 10000 nM, 50.1 nM, 63.1 nM and 3980 nM.
The like results for `O=S(=O)(Nc1ccc(-c2ccc3c(cnn3-c3ccc(F)cc3)c2)c(C(F)(F)F)c1)c1cccc(OC(F)(F)F)c1` were, in that order, 251 nM, above 10000 nM, 39.8 nM, 79.4 nM and above 10000 nM.
In the case of `CC(C)N(c1ccccc1)S(=O)(=O)c1ccc(-c2ccc3c(cnn3-c3ccc(F)cc3)c2)c(C(F)(F)F)c1`, on Glucocorticoid receptor [1], the EC50 is 126 nM. Moreover, the IC50 was above 2510 nM on Progesterone receptor, 15.8 nM at Glucocorticoid receptor [2], 50.1 nM against Glucocorticoid receptor [3] and above 10000 nM on Androgen receptor.
Taken in the same sequence, the figures for `COc1cccc(S(=O)(=O)Nc2ccc(-c3ccc4c(cnn4-c4ccc(F)cc4)c3)c(C(F)(F)F)c2)c1` were 251 nM, above 10000 nM, 15.8 nM, 79.4 nM and 3160 nM.
Take `CCCCN(c1ccccc1)S(=O)(=O)c1ccc(-c2ccc3c(cnn3-c3ccc(F)cc3)c2)c(C(F)(F)F)c1`: the EC50 on Glucocorticoid receptor [1] was above 10000 nM. Further, the IC50 on Progesterone receptor was above 10000 nM; on Glucocorticoid receptor [2] it was 25.1 nM; on Glucocorticoid receptor [3], above 10000 nM; against Androgen receptor it was above 10000 nM.
`CCNS(=O)(=O)c1ccc(-c2ccc3c(cnn3-c3ccc(F)cc3)c2)c(C(F)(F)F)c1`: the IC50 was 1580 nM on Progesterone receptor; 20 nM at Glucocorticoid receptor [2]; 2000 nM on Glucocorticoid receptor [4]; above 10000 nM at Glucocorticoid receptor [3]; 3160 nM against Androgen receptor.
Taken in the same sequence, the figures for `CC(C)(C)c1ccc(S(=O)(=O)Nc2ccc(-c3ccc4c(cnn4-c4ccc(F)cc4)c3)c(C(F)(F)F)c2)cc1` were above 2510 nM, 50.1 nM, 10000 nM, above 10000 nM and above 10000 nM.
